In ChEMBL document CHEMBL1201862, “PubChem BioAssay data set” (2004):
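Exposure lasted 48 hours, with cells grown in 96-well plates and compounds tested at five concentrations. The concentration for 50% growth inhibition is given as GI50.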 Active and inactive are the calls of the source. Cut-off read from the data, not from the text of the source: active = GI50 up to about 1.1 µM and inactive = higher.

Key:
Assay in all cases: NCI-60 cell line screen, 48 h
[1] = system: PC-3
[2] = system: RPMI-8226
[3] = system: SK-OV-3
[4] = system: SNB-19
[5] = system: Malme-3M
[6] = system: UO-31
[7] = system: HT-29
[8] = system: BT-549
[9] = system: K562
[10] = system: HCC 2998
[11] = system: MDA-N
[12] = system: TK-10
[13] = system: UACC-62
[14] = system: OVCAR-4
[15] = system: SK-MEL-5
[16] = system: SN12C
[17] = system: DU-145
[18] = system: NCI-H226
[19] = system: SF-539
[20] = system: SK-MEL-28
[21] = system: EKVX
[22] = system: HL-60
[23] = system: SK-MEL-2
[24] = system: SNB-75
[25] = system: SR
[26] = system: ACHN
[27] = system: OVCAR-3
[28] = system: SF-268
[29] = system: A498
[30] = system: A549
[31] = system: UACC-257
[32] = system: 786-0
[33] = system: HCT-15
[34] = system: U-251
[35] = system: SW-620
[36] = system: MOLT-4
[37] = system: CAKI-1
[38] = system: NCI-H23
[39] = system: HOP-62
[40] = system: M14
[41] = system: OVCAR-5
[42] = system: MDA-MB-435
[43] = system: T47D
[44] = system: COLO 205
[45] = system: RXF 393
[46] = system: HCT-116
[47] = system: MDA-MB-231
[48] = system: SF-295
[49] = system: MCF7
[50] = system: NCI/ADR-RES
[51] = system: CCRF-CEM
[52] = system: KM12
[53] = system: NCI-H460
[54] = system: Hs-578T
[55] = system: LOX IMVI
[56] = system: OVCAR-8
[57] = system: NCI-H522
[58] = system: IGROV-1
[59] = system: HOP-92

## N=c1oc2c(Cl)cc(Cl)cc2cc1C(=O)Nc1ccccn1
[1]
  GI50: 52 µM (inactive)
[2]
  GI50: 22.3 µM (inactive)
[3]
  GI50: 67.5 µM (inactive)
[4]
  GI50: 34.7 µM (inactive)
[5]
  GI50: > 100 µM (inactive)
[6]
  GI50: 59 µM (inactive)
[7]
  GI50: 91.2 µM (inactive)
[8]
  GI50: 41.4 µM (inactive)
[9]
  GI50: 71 µM (inactive)
[10]
  GI50: 81.5 µM (inactive)
[11]
  GI50: 62.1 µM (inactive)
[12]
  GI50: 34.5 µM (inactive)
[13]
  GI50: 20.6 µM (inactive)
[14]
  GI50: 58.6 µM (inactive)
[15]
  GI50: > 100 µM (inactive)
[16]
  GI50: 99.3 µM (inactive)
[17]
  GI50: 72.4 µM (inactive)
[18]
  GI50: > 100 µM (inactive)
[19]
  GI50: 40.9 µM (inactive)
[20]
  GI50: > 100 µM (inactive)
[21]
  GI50: 67.3 µM (inactive)
[22]
  GI50: > 100 µM (inactive)
[23]
  GI50: 42.7 µM (inactive)
[24]
  GI50: 14.3 µM (inactive)
[25]
  GI50: 23.1 µM (inactive)
[26]
  GI50: 22 µM (inactive)
[27]
  GI50: 24.6 µM (inactive)
[28]
  GI50: 33 µM (inactive)
[29]
  GI50: 40.1 µM (inactive)
[30]
  GI50: 44.4 µM (inactive)
[31]
  GI50: > 100 µM (inactive)
[32]
  GI50: 27.5 µM (inactive)
[33]
  GI50: 34.8 µM
[34]
  GI50: 37.2 µM (inactive)
[35]
  GI50: 43.6 µM (inactive)
[36]
  GI50: 8.24 µM (inactive)
[37]
  GI50: > 100 µM (inactive)
[38]
  GI50: 41.4 µM (inactive)
[39]
  GI50: 16.4 µM (inactive)
[40]
  GI50: 33.7 µM (inactive)
[41]
  GI50: > 100 µM (inactive)
[42]
  GI50: 45.6 µM (inactive)
[43]
  GI50: 74.8 µM (inactive)
[44]
  GI50: > 100 µM (inactive)
[45]
  GI50: 19.8 µM (inactive)
[46]
  GI50: 41.1 µM (inactive)
[47]
  GI50: 69.2 µM (inactive)
[48]
  GI50: 54.7 µM (inactive)
[49]
  GI50: 29.2 µM (inactive)
[50]
  GI50: 66.4 µM (inactive)
[51]
  GI50: 22 µM (inactive)
[52]
  GI50: 13.9 µM (inactive)
[53]
  GI50: 48.3 µM (inactive)
[54]
  GI50: 20.5 µM (inactive)

## FC1(F)ON2CCc3ccccc3C2[C@H]1c1ccccc1 (some centres undefined)
[1]
  GI50: > 10 µM (inactive)
[2]
  GI50: > 10 µM (inactive)
[3]
  GI50: > 10 µM (inactive)
[4]
  GI50: > 10 µM (inactive)
[5]
  GI50: 2.22 µM (inactive)
[6]
  GI50: > 100 µM (inactive)
[7]
  GI50: > 10 µM (inactive)
[8]
  GI50: > 10 µM (inactive)
[55]
  GI50: 91 µM (inactive)
[9]
  GI50: > 10 µM (inactive)
[10]
  GI50: > 10 µM (inactive)
[11]
  GI50: > 10 µM (inactive)
[12]
  GI50: > 10 µM (inactive)
[13]
  GI50: > 10 µM (inactive)
[14]
  GI50: > 10 µM (inactive)
[15]
  GI50: > 10 µM (inactive)
[16]
  GI50: > 10 µM (inactive)
[17]
  GI50: > 10 µM (inactive)
[18]
  GI50: 35.8 µM (inactive)
[19]
  GI50: 91.8 µM (inactive)
[20]
  GI50: > 10 µM (inactive)
[21]
  GI50: > 10 µM (inactive)
[22]
  GI50: > 10 µM (inactive)
[23]
  GI50: > 10 µM (inactive)
[24]
  GI50: 16.7 µM (inactive)
[25]
  GI50: > 10 µM (inactive)
[26]
  GI50: > 10 µM (inactive)
[27]
  GI50: 21 µM (inactive)
[28]
  GI50: > 10 µM (inactive)
[29]
  GI50: > 10 µM (inactive)
[30]
  GI50: > 10 µM (inactive)
[31]
  GI50: > 10 µM (inactive)
[32]
  GI50: 26.4 µM (inactive)
[33]
  GI50: > 10 µM
[34]
  GI50: 74 µM (inactive)
[35]
  GI50: > 10 µM (inactive)
[36]
  GI50: > 10 µM (inactive)
[37]
  GI50: > 10 µM (inactive)
[38]
  GI50: > 10 µM (inactive)
[56]
  GI50: 39.9 µM (inactive)
[39]
  GI50: 90.4 µM (inactive)
[40]
  GI50: 82 µM (inactive)
[41]
  GI50: > 10 µM (inactive)
[42]
  GI50: > 10 µM (inactive)
[57]
  GI50: > 10 µM (inactive)
[43]
  GI50: 55.8 µM (inactive)
[44]
  GI50: > 10 µM (inactive)
[45]
  GI50: 76.4 µM (inactive)
[46]
  GI50: 65.6 µM (inactive)
[47]
  GI50: 48.9 µM (inactive)
[48]
  GI50: > 10 µM (inactive)
[49]
  GI50: > 10 µM (inactive)
[50]
  GI50: 92.9 µM (inactive)
[51]
  GI50: > 100 µM (inactive)
[58]
  GI50: > 10 µM (inactive)
[52]
  GI50: > 10 µM (inactive)
[53]
  GI50: > 10 µM (inactive)
[54]
  GI50: 4.25 µM (inactive)

## CCN(CC)CCn1c(=O)c2ccccc2n2c3c(=O)n(C)c(=O)n(C)c3nc12
[1]
  GI50: 2.38 µM (inactive)
[2]
  GI50: 1.6 µM (inactive)
[3]
  GI50: 1.37 µM (inactive)
[4]
  GI50: 2.38 µM (inactive)
[59]
  GI50: 1.47 µM (inactive)
[5]
  GI50: 2.07 µM (inactive)
[6]
  GI50: 2.11 µM (inactive)
[7]
  GI50: 2.2 µM (inactive)
[8]
  GI50: 1.19 µM (inactive)
[55]
  GI50: 13.2 µM (inactive)
[9]
  GI50: 2.21 µM (inactive)
[10]
  GI50: 1.93 µM (inactive)
[11]
  GI50: 4.85 µM (inactive)
[12]
  GI50: 19.6 µM (inactive)
[13]
  GI50: 0.762 µM (active)
[14]
  GI50: 4.27 µM (inactive)
[15]
  GI50: 1.17 µM (inactive)
[16]
  GI50: 1.53 µM (inactive)
[17]
  GI50: 0.771 µM (active)
[18]
  GI50: 1.16 µM (inactive)
[19]
  GI50: 0.968 µM (active)
[20]
  GI50: 5.15 µM (inactive)
[21]
  GI50: 3.59 µM (inactive)
[22]
  GI50: 0.255 µM (active)
[23]
  GI50: 2.82 µM (inactive)
[24]
  GI50: 1.64 µM (inactive)
[25]
  GI50: 0.177 µM (active)
[26]
  GI50: 0.25 µM (active)
[27]
  GI50: 4.06 µM (inactive)
[28]
  GI50: 2.07 µM (inactive)
[30]
  GI50: 0.321 µM (active)
[31]
  GI50: 3.46 µM (inactive)
[32]
  GI50: 1.32 µM (inactive)
[33]
  GI50: 15.4 µM
[34]
  GI50: 1.43 µM (inactive)
[35]
  GI50: 1.22 µM (inactive)
[36]
  GI50: 0.239 µM (active)
[37]
  GI50: 0.252 µM (active)
[38]
  GI50: 2.07 µM (inactive)
[56]
  GI50: 1.84 µM (inactive)
[39]
  GI50: 0.718 µM (active)
[40]
  GI50: 3.16 µM (inactive)
[41]
  GI50: 2.53 µM (inactive)
[42]
  GI50: 4.71 µM (inactive)
[57]
  GI50: 2.43 µM (inactive)
[43]
  GI50: 2.15 µM (inactive)
[44]
  GI50: 1.55 µM (inactive)
[45]
  GI50: 5.27 µM (inactive)
[46]
  GI50: 1.55 µM (inactive)
[47]
  GI50: 5.14 µM (inactive)
[48]
  GI50: 1.24 µM (inactive)
[49]
  GI50: 0.337 µM (active)
[50]
  GI50: 3.33 µM (inactive)
[51]
  GI50: 0.547 µM (active)
[58]
  GI50: 2.11 µM (inactive)
[52]
  GI50: 1.77 µM (inactive)
[53]
  GI50: 0.148 µM (active)
[54]
  GI50: 2.01 µM (inactive)

## Cc1sc2c(c1C)/C(=N\O)c1cccn1-2
[1]
  GI50: 29.9 µM (inactive)
[2]
  GI50: 37.8 µM (inactive)
[3]
  GI50: 39.7 µM (inactive)
[4]
  GI50: 23.3 µM (inactive)
[5]
  GI50: 45.1 µM (inactive)
[6]
  GI50: 31.6 µM (inactive)
[7]
  GI50: 30.2 µM (inactive)
[8]
  GI50: 42.1 µM (inactive)
[55]
  GI50: 55.7 µM (inactive)
[10]
  GI50: 37 µM (inactive)
[11]
  GI50: 40.6 µM (inactive)
[12]
  GI50: 43.6 µM (inactive)
[13]
  GI50: 95.7 µM (inactive)
[14]
  GI50: 44.9 µM (inactive)
[15]
  GI50: 46.1 µM (inactive)
[16]
  GI50: 38.5 µM (inactive)
[17]
  GI50: 61 µM (inactive)
[18]
  GI50: 29.7 µM (inactive)
[20]
  GI50: 93.3 µM (inactive)
[21]
  GI50: 22.2 µM (inactive)
[23]
  GI50: 45.2 µM (inactive)
[24]
  GI50: 16.2 µM (inactive)
[25]
  GI50: 22.6 µM (inactive)
[26]
  GI50: 37.2 µM (inactive)
[27]
  GI50: 42.9 µM (inactive)
[28]
  GI50: 34 µM (inactive)
[29]
  GI50: 24.2 µM (inactive)
[30]
  GI50: 44.5 µM (inactive)
[31]
  GI50: 93.5 µM (inactive)
[32]
  GI50: 20.1 µM (inactive)
[33]
  GI50: 81.8 µM
[34]
  GI50: 26.7 µM (inactive)
[35]
  GI50: 58.6 µM (inactive)
[36]
  GI50: 17.3 µM (inactive)
[37]
  GI50: 32.6 µM (inactive)
[56]
  GI50: 45.8 µM (inactive)
[39]
  GI50: 25.3 µM (inactive)
[40]
  GI50: 64 µM (inactive)
[41]
  GI50: > 100 µM (inactive)
[42]
  GI50: 54 µM (inactive)
[57]
  GI50: 19 µM (inactive)
[43]
  GI50: 25.1 µM (inactive)
[44]
  GI50: > 100 µM (inactive)
[45]
  GI50: 23.2 µM (inactive)
[46]
  GI50: 37.6 µM (inactive)
[47]
  GI50: 52.8 µM (inactive)
[48]
  GI50: 54.7 µM (inactive)
[49]
  GI50: 39.1 µM (inactive)
[50]
  GI50: 53.3 µM (inactive)
[51]
  GI50: 3.6 µM (inactive)
[58]
  GI50: 24.3 µM (inactive)
[52]
  GI50: 31.6 µM (inactive)
[53]
  GI50: 35.1 µM (inactive)
[54]
  GI50: 16.9 µM (inactive)
